Assay results: patent publication US7964531B2, “3-phenoxy-4-pyridazinol derivatives and herbicidal composition containing the same” (Mitsui Chemicals Agro, Inc., priority 2001, dated 2011)

Experiments:
Format in all cases: in vivo
Settings in all cases: wettable powder applied 3 days after transplanting, judged after 25 days
[1] = system: transplanted paddy-field rice; assay: Test Example 1: crop injury against transplanted paddy-field rice
Method in brief: (§1)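 First, paddy soil was potted and seeded at the surface layer with non-dormant weed seeds; germinated Cyperus serotinus tubers were planted and 2.2-leaf rice transplanted. Three days later, diluted wettable powder was applied under flooding. Inhibition was rated 0–5 after 25 days.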

Cyperus serotinus = assay: Test Example 1: herbicidal effects, paddy-field pot test
Method in brief: as §1

Scirpus joncoides = assay: as above
Method in brief: as §1

[2] = system: barnyardgrass (Echinochloa oryzicola Vasing.); assay: as above
Method in brief: as §1

[3] = system: annual broad-leaved weeds (Lindernia spp., Rotala indica); assay: as above
Method in brief: as §1

| SMILES | Crop injury against transplanted rice ([1]; chemical dosage 10 g/a) | Herbicidal effects Cyperus serotinus (Cyperus serotinus; chemical dosage 10 g/a) | Herbicidal effects Scirpus joncoides (Scirpus joncoides; chemical dosage 10 g/a) | Herbicidal effects Barnyard grass ([2]; chemical dosage 10 g/a) | Herbicidal effects Broad leaf ([3]; chemical dosage 10 g/a) | Crop injury against transplanted rice ([1]; chemical dosage 12.5 g/a) | Crop injury against transplanted rice ([1]; chemical dosage 25 g/a) | Herbicidal effects Cyperus serotinus (Cyperus serotinus; chemical dosage 12.5 g/a) | Herbicidal effects Cyperus serotinus (Cyperus serotinus; chemical dosage 25 g/a) | Herbicidal effects Scirpus joncoides (Scirpus joncoides; chemical dosage 12.5 g/a) | Herbicidal effects Scirpus joncoides (Scirpus joncoides; chemical dosage 25 g/a) | Herbicidal effects Barnyard grass ([2]; chemical dosage 12.5 g/a) | Herbicidal effects Barnyard grass ([2]; chemical dosage 25 g/a) | Herbicidal effects Broad leaf ([3]; chemical dosage 12.5 g/a) | Herbicidal effects Broad leaf ([3]; chemical dosage 25 g/a) | Crop injury against transplanted rice ([1]; chemical dosage 20 g/a) | Herbicidal effects Cyperus serotinus (Cyperus serotinus; chemical dosage 20 g/a) | Herbicidal effects Scirpus joncoides (Scirpus joncoides; chemical dosage 20 g/a) | Herbicidal effects Barnyard grass ([2]; chemical dosage 20 g/a) | Herbicidal effects Broad leaf ([3]; chemical dosage 20 g/a) |
| --- | --- | --- | --- | --- | --- | --- | --- | --- | --- | --- | --- | --- | --- | --- | --- | --- | --- | --- | --- | --- |
| Cc1cccc(C)c1Oc1nnc(Cl)cc1O [Example 21] | 0 (Growth inhibition rate; 0 to 10%) | 5 (Growth inhibition rate; 91 to 100%) | 5 (Growth inhibition rate; 91 to 100%) | 2 (Growth inhibition rate; 31 to 50%) | 5 (Growth inhibition rate; 91 to 100%) |  |  |  |  |  |  |  |  |  |  |  |  |  |  |  |
| CCc1ccc2c(c1Oc1nnc(Cl)cc1O)CCC2 [Example 306] | 0 (Growth inhibition rate; 0 to 10%) | 5 (Growth inhibition rate; 91 to 100%) | 5 (Growth inhibition rate; 91 to 100%) | 1 (Growth inhibition rate; 11 to 30%) | 5 (Growth inhibition rate; 91 to 100%) |  |  |  |  |  |  |  |  |  |  |  |  |  |  |  |
| CSc1c(C)cc(C)cc1Oc1nnc(Cl)cc1O [Example 289] |  |  |  |  |  | 0 (Growth inhibition rate; 0 to 10%) | 0 (Growth inhibition rate; 0 to 10%) | 4 (Growth inhibition rate; 71 to 90%) | 5 (Growth inhibition rate; 91 to 100%) | 4 (Growth inhibition rate; 71 to 90%) | 5 (Growth inhibition rate; 91 to 100%) | 0 (Growth inhibition rate; 0 to 10%) | 0 (Growth inhibition rate; 0 to 10%) | 4 (Growth inhibition rate; 71 to 90%) | 5 (Growth inhibition rate; 91 to 100%) |  |  |  |  |  |
| CCCS(=O)(=O)Oc1cc(Cl)nnc1Oc1ccccc1C1CC1 [Example 360] | 0 (Growth inhibition rate; 0 to 10%) | 5 (Growth inhibition rate; 91 to 100%) | 5 (Growth inhibition rate; 91 to 100%) | 3 (Growth inhibition rate; 51 to 70%) | 5 (Growth inhibition rate; 91 to 100%) |  |  |  |  |  |  |  |  |  |  | 0 (Growth inhibition rate; 0 to 10%) | 5 (Growth inhibition rate; 91 to 100%) | 5 (Growth inhibition rate; 91 to 100%) | 4 (Growth inhibition rate; 71 to 90%) | 5 (Growth inhibition rate; 91 to 100%) |
| CSc1ccccc1Oc1nnc(Cl)cc1O [Example 129] |  |  |  |  |  | 0 (Growth inhibition rate; 0 to 10%) | 0 (Growth inhibition rate; 0 to 10%) | 4 (Growth inhibition rate; 71 to 90%) | 5 (Growth inhibition rate; 91 to 100%) | 3 (Growth inhibition rate; 51 to 70%) | 4 (Growth inhibition rate; 71 to 90%) | 1 (Growth inhibition rate; 11 to 30%) | 2 (Growth inhibition rate; 31 to 50%) | 5 (Growth inhibition rate; 91 to 100%) | 5 (Growth inhibition rate; 91 to 100%) |  |  |  |  |  |
| CC1COc2cccc(Oc3nnc(Cl)cc3O)c21 (centres unmarked) [Example 182] |  |  |  |  |  |  |  |  |  |  |  |  |  |  |  | 0 (Growth inhibition rate; 0 to 10%) | 5 (Growth inhibition rate; 91 to 100%) | 4 (Growth inhibition rate; 71 to 90%) | 2 (Growth inhibition rate; 31 to 50%) | 5 (Growth inhibition rate; 91 to 100%) |
| Oc1cc(Cl)nnc1Oc1c(C2CC2)ccc2c1CCC2 [Example 307] | 0 (Growth inhibition rate; 0 to 10%) | 5 (Growth inhibition rate; 91 to 100%) | 5 (Growth inhibition rate; 91 to 100%) | 3 (Growth inhibition rate; 51 to 70%) | 5 (Growth inhibition rate; 91 to 100%) |  |  |  |  |  |  |  |  |  |  | 0 (Growth inhibition rate; 0 to 10%) | 5 (Growth inhibition rate; 91 to 100%) | 5 (Growth inhibition rate; 91 to 100%) | 4 (Growth inhibition rate; 71 to 90%) | 5 (Growth inhibition rate; 91 to 100%) |
| Cc1cc(C)c(C)c(Oc2nnc(Cl)cc2O)c1C [Example 320] |  |  |  |  |  | 0 (Growth inhibition rate; 0 to 10%) | 0 (Growth inhibition rate; 0 to 10%) | 5 (Growth inhibition rate; 91 to 100%) | 5 (Growth inhibition rate; 91 to 100%) | 5 (Growth inhibition rate; 91 to 100%) | 5 (Growth inhibition rate; 91 to 100%) | 1 (Growth inhibition rate; 11 to 30%) | 2 (Growth inhibition rate; 31 to 50%) | 5 (Growth inhibition rate; 91 to 100%) | 5 (Growth inhibition rate; 91 to 100%) |  |  |  |  |  |
| Cc1cccc(Cl)c1Oc1nnc(Cl)cc1O [Example 242] |  |  |  |  |  | 0 (Growth inhibition rate; 0 to 10%) | 0 (Growth inhibition rate; 0 to 10%) | 5 (Growth inhibition rate; 91 to 100%) | 5 (Growth inhibition rate; 91 to 100%) | 3 (Growth inhibition rate; 51 to 70%) | 4 (Growth inhibition rate; 71 to 90%) | 3 (Growth inhibition rate; 51 to 70%) | 4 (Growth inhibition rate; 71 to 90%) | 5 (Growth inhibition rate; 91 to 100%) | 5 (Growth inhibition rate; 91 to 100%) |  |  |  |  |  |
| Cc1ccc(Cl)c(Oc2nnc(Cl)cc2O)c1 [Example 203] |  |  |  |  |  | 0 (Growth inhibition rate; 0 to 10%) | 0 (Growth inhibition rate; 0 to 10%) | 5 (Growth inhibition rate; 91 to 100%) | 5 (Growth inhibition rate; 91 to 100%) | 5 (Growth inhibition rate; 91 to 100%) | 5 (Growth inhibition rate; 91 to 100%) | 1 (Growth inhibition rate; 11 to 30%) | 2 (Growth inhibition rate; 31 to 50%) | 5 (Growth inhibition rate; 91 to 100%) | 5 (Growth inhibition rate; 91 to 100%) |  |  |  |  |  |
| CCCc1c(C)cc(C)cc1Oc1nnc(Cl)cc1O [Example 287] |  |  |  |  |  | 0 (Growth inhibition rate; 0 to 10%) | 0 (Growth inhibition rate; 0 to 10%) | 1 (Growth inhibition rate; 11 to 30%) | 3 (Growth inhibition rate; 51 to 70%) | 5 (Growth inhibition rate; 91 to 100%) | 5 (Growth inhibition rate; 91 to 100%) | 0 (Growth inhibition rate; 0 to 10%) | 0 (Growth inhibition rate; 0 to 10%) | 5 (Growth inhibition rate; 91 to 100%) | 5 (Growth inhibition rate; 91 to 100%) |  |  |  |  |  |
| Oc1cc(Cl)nnc1Oc1cc(Cl)ccc1C1CC1 [Example 217] | 0 (Growth inhibition rate; 0 to 10%) | 5 (Growth inhibition rate; 91 to 100%) | 5 (Growth inhibition rate; 91 to 100%) | 2 (Growth inhibition rate; 31 to 50%) | 5 (Growth inhibition rate; 91 to 100%) |  |  |  |  |  |  |  |  |  |  | 0 (Growth inhibition rate; 0 to 10%) | 5 (Growth inhibition rate; 91 to 100%) | 5 (Growth inhibition rate; 91 to 100%) | 4 (Growth inhibition rate; 71 to 90%) | 5 (Growth inhibition rate; 91 to 100%) |
| Oc1cc(Cl)nnc1Oc1ccccc1I [Example 52] | 0 (Growth inhibition rate; 0 to 10%) | 5 (Growth inhibition rate; 91 to 100%) | 5 (Growth inhibition rate; 91 to 100%) | 3 (Growth inhibition rate; 51 to 70%) | 5 (Growth inhibition rate; 91 to 100%) |  |  |  |  |  |  |  |  |  |  | 0 (Growth inhibition rate; 0 to 10%) | 5 (Growth inhibition rate; 91 to 100%) | 5 (Growth inhibition rate; 91 to 100%) | 4 (Growth inhibition rate; 71 to 90%) | 5 (Growth inhibition rate; 91 to 100%) |
| CCOc1ccccc1Oc1nnc(Cl)cc1O [Example 122] | 0 (Growth inhibition rate; 0 to 10%) | 5 (Growth inhibition rate; 91 to 100%) | 4 (Growth inhibition rate; 71 to 90%) | 0 (Growth inhibition rate; 0 to 10%) | 5 (Growth inhibition rate; 91 to 100%) |  |  |  |  |  |  |  |  |  |  | 0 (Growth inhibition rate; 0 to 10%) | 5 (Growth inhibition rate; 91 to 100%) | 5 (Growth inhibition rate; 91 to 100%) | 0 (Growth inhibition rate; 0 to 10%) | 5 (Growth inhibition rate; 91 to 100%) |
